The test system of one data set is Canis familiaris. Put plainly: Minimum effective dose (sc) to induce emesis in male or female Beagle dogs. The class given is functional. The conditions noted are these: Canis lupus familiaris, read-out: MED.
The target in data set [1] is Dopamine receptor (Bos taurus, UniProt Q95136+P20288). Briefly: In vitro binding affinity towards dopamine receptor was determined in bovine anterior pituitary membrane using [3H]dihydroergocriptine as the radioligand. The class given is cell membranes.
The target of data set [2] is Dopamine receptor. Briefly: In vitro binding affinity towards dopamine receptor was determined in rat striatal membrane using [3H]spiroperidol as the radioligand. The class given is cell membranes, Striatum.
The nature of data set [3]: Lethal dose in male mice (administered ip), activity expressed as LD50 values. The class given is toxicity, organism-based. The note with it: mouse, in vivo.
In data set [4] the test system is Rattus norvegicus. Put plainly: Inhibitory activity against plasma prolactin level in male Sprague-Dawley rats after peroral administration (5mg/Kg), activity expressed as mean duration for submaximal inhibition. The class given is functional.
The species named for data set [5] is Rattus norvegicus. Briefly: Minimum effective dose required to decrease striatal DA turnover in rats. The note with it: read-out: MED. The class given is functional.
Data set [6] is filed under the species Rattus norvegicus. Briefly: Minimum effective dose required to induce rotations in rats with unilateral lesion in the nigrostriatal pathway. The class given is functional. The note with it: read-out: MED.
The species named for data set [7] is Rattus norvegicus. Put plainly: Minimum effective dose required to produce stereotypies in rats. The class given is functional. The note with it: read-out: MED.
For data set [8], the species on record is Rattus norvegicus. Put plainly: Inhibitory activity against prolactin release in rat anterior pituitary cells. The conditions noted are these: Pituitary gland cell. The class given is functional, cell-based.
Data set [9] has as its system Rattus norvegicus. Briefly: Inhibitory activity against plasma prolactin level in male Sprague-Dawley rats after peroral administration (5mg/Kg), activity expressed as mean duration for submaximal inhibition; Duration 4-8h. The class given is functional.
In data set [10] the test system is Rattus norvegicus. Briefly: Inhibitory activity against plasma prolactin level in male Sprague-Dawley rats after peroral administration (5mg/Kg), activity expressed as mean duration for submaximal inhibition; Duration 3-6h. The class given is functional.
Data set [11] deals with Rattus norvegicus. Put plainly: Inhibitory activity against plasma prolactin level in male Sprague-Dawley rats after peroral administration (5mg/Kg), activity expressed as mean duration for submaximal inhibition; Duration 3-4h. The class given is functional.

For the compound `CCCN1CCO[C@@H]2c3cccc4c3[C@@H](CN4)C[C@H]21`, the minimal effective dose with Canis familiaris, in the data set listed under Rattus norvegicus [5], in the data set listed under Rattus norvegicus [6] and in the data set listed under Rattus norvegicus [7] was 0.1 mg/kg in each case. In addition, the IC50 (usually the concentration at which inhibition is half-maximal) came to 300 nM on Dopamine receptor [1], 600 nM on Dopamine receptor [2] and 0.1 nM in the data set listed under Rattus norvegicus [8]. Besides, the LD50 – broadly, the dose at which mortality reaches 50% – in data set [3] is 150 mg/kg. This compound also had a Duration in the data set on Rattus norvegicus [4] of more than 12 h.

As to `CCCN1CCO[C@@H]2c3cccc4[nH]cc(c34)C[C@H]21`, the minimal effective dose in the data set on Canis familiaris worked out at 0.01 mg/kg; in the data set filed under Rattus norvegicus [5], 0.05 mg/kg; in the data set listed under Rattus norvegicus [6] it was 0.01 mg/kg; in the data set filed under Rattus norvegicus [7], 0.1 mg/kg. Further, the values for the IC50 at Dopamine receptor [1], at Dopamine receptor [2] and in the data set filed under Rattus norvegicus [8] were 40 nM, 70 nM and 0.06 nM, respectively. For the same compound, the LD50 in data set [3] stood at 150 mg/kg. The Duration in the data set on Rattus norvegicus [4] was more than 22 h.

Take `CCCN1C[C@H](CSC)C[C@@H]2c3cccc4[nH]cc(c34)C[C@H]21.CS(=O)(=O)O` [PERGOLIDE MESYLATE]: the minimal effective dose amounted to 0.05 mg/kg with Canis familiaris, 0.05 mg/kg in the data set listed under Rattus norvegicus [5], 0.02 mg/kg in the data set filed under Rattus norvegicus [6] and 0.1 mg/kg in the data set listed under Rattus norvegicus [7]. In data set [3], this compound gave an LD50 of 100 mg/kg. The compound further returned a Duration in the data set with Rattus norvegicus [4] of more than 22 h. This compound showed an IC50 in the data set filed under Rattus norvegicus [8] of 0.07 nM.

In the case of `CN1CCO[C@@H]2c3cccc4[nH]cc(c34)C[C@H]21`, the minimal effective dose with Canis familiaris was determined as 0.1 mg/kg; in the data set filed under Rattus norvegicus [5], 0.1 mg/kg; in the data set listed under Rattus norvegicus [6], 0.2 mg/kg; in the data set filed under Rattus norvegicus [7], 0.5 mg/kg. Moreover, the IC50 at Dopamine receptor [1] came out at 2500 nM; on Dopamine receptor [2], 800 nM; in the data set filed under Rattus norvegicus [8], 17 nM. For the same compound, the Duration with Rattus norvegicus [9] came out at 4 h.

Take `c1cc2c3c(c[nH]c3c1)C[C@H]1NCCO[C@H]21`: the minimal effective dose was more than 0.5 mg/kg in the data set with Canis familiaris, 1 mg/kg in the data set filed under Rattus norvegicus [5], 0.5 mg/kg in the data set listed under Rattus norvegicus [6] and 5 mg/kg in the data set listed under Rattus norvegicus [7]. In addition, the IC50 on Dopamine receptor [1] was 7000 nM; at Dopamine receptor [2], 5000 nM; in the data set listed under Rattus norvegicus [8], 300 nM. This compound also came in with an LD50 in data set [3] of 150 mg/kg. The same compound displayed a Duration with Rattus norvegicus [4] of 3 h.

`CN1CCO[C@@H]2c3cccc4[nH]c(Br)c(c34)C[C@H]21`: the minimal effective dose in the data set on Canis familiaris was found to be 0.5 mg/kg; in the data set listed under Rattus norvegicus [5] it was 1 mg/kg; in the data set filed under Rattus norvegicus [6], 1 mg/kg; in the data set listed under Rattus norvegicus [7] it was 20 mg/kg. The IC50 at Dopamine receptor [1] was 3000 nM; at Dopamine receptor [2], 1000 nM; in the data set listed under Rattus norvegicus [8], 100 nM. This compound also had an LD50 in [3] of 35 mg/kg. Moreover, the Duration in the data set with Rattus norvegicus [10] came to 3 h.

`CN1CCO[C@@H]2c3cccc4c3c(cn4C)C[C@H]21`: the minimal effective dose in the data set on Canis familiaris was determined as 1 mg/kg; in the data set filed under Rattus norvegicus [5], 10 mg/kg; in the data set listed under Rattus norvegicus [6] it was 2 mg/kg; in the data set listed under Rattus norvegicus [7], 20 mg/kg. Moreover, the IC50 was 4800 nM on Dopamine receptor [1], 4500 nM on Dopamine receptor [2] and more than 10000 nM in the data set listed under Rattus norvegicus [8]. Further, the LD50 in [3] was more than 200 mg/kg. The Duration with Rattus norvegicus [11] came out at 3 h.

Consider `CCCN1CCO[C@@H]2c3cccc4[nH]c(Br)c(c34)C[C@H]21`, for which the minimal effective dose in the data set on Canis familiaris was more than 0.5 mg/kg; in the data set listed under Rattus norvegicus [5], 0.5 mg/kg; in the data set filed under Rattus norvegicus [6], 0.2 mg/kg; in the data set listed under Rattus norvegicus [7] it was 0.2 mg/kg. The IC50 on Dopamine receptor [1] was 500 nM; on Dopamine receptor [2], 250 nM; in the data set listed under Rattus norvegicus [8] it was 0.2 nM. Besides, the LD50 in [3] was more than 200 mg/kg. In the data set with Rattus norvegicus [4], this compound yielded a Duration of more than 12 h.

The values above are taken from ChEMBL document CHEMBL1122358, “Synthesis and central dopaminergic activities of (+/-)-hexahydro-7H-indolo[3,4-gh][1,4]benzoxazine derivatives [(+/-)-9-oxaergolines]” (J Med Chem, 1983).
